Source: patent publication US20240398812A1 (Caraway Therapeutics, Inc., priority 2021, published 2024)
pEC50: −log10 of the molar value.

Assays:
TRPML3 = biological target: T1, TRPML3 (Homo sapiens, UniProt Q8TDD5); experiment: Fluorescent TRPML3 assay (as for TRPML1); assay type: cell-based
T1 construct: expressed in transfected cells
T1 sequence (Q8TDD5 1-553): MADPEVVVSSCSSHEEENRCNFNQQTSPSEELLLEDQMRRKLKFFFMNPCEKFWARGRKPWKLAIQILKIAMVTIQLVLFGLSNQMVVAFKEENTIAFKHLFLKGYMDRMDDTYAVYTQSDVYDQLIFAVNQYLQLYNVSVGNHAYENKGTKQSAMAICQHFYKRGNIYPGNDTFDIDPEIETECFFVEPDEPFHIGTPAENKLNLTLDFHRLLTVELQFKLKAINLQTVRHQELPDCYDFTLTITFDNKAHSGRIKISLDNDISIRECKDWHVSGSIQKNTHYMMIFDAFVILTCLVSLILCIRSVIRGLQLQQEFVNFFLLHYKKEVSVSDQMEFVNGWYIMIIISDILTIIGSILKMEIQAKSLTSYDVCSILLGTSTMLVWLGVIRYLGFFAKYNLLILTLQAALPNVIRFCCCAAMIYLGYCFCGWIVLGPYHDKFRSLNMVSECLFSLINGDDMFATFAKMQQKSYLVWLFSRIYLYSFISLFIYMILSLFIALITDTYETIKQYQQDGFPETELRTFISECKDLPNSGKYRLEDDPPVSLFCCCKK
Procedure: (§1) HEK-293 Trex cells were stably transfected with a construct consisting of the human coding sequence for TRPML1 cloned into the tet-inducible plasmid pCDNA5 T/O. Mutations were introduced into the TRPML1 sequence to facilitate expression on the cell surface (Silvia Vergarajauregui, Rosa Puertollano Traffic. 2006 March; 7 (3): 337-353). Briefly, the cells are cultured in 150 mm round tissue culture dishes containing 20 mL of media. The day before the assay the cells are rinsed with DPBS —Ca—Mg and then treated briefly with Trypsin-EDTA. The Trypsin-EDTA is diluted with growth media, and cells are counted. 38×10^6 cells are re-plated into 150 mm round tissue culture dishes in media containing 0.5 ug/mL doxycycline to induce expression of hTRPML1.
(§2) The day of the experiment cells are lifted from the plates as above and collected by centrifugation. The cells are then suspended in dye loading buffer consisting of Ringer's solution supplemented with 0.1% Pluronic Acid and 1 micromolar Fluo4-AM dye. Cells are loaded for ˜60 minutes in the dark with occasional mixing. The cells are collected by centrifugation, the loading media aspirated, and the cells resuspended in 25 mL Ringer's solution and incubated ˜60 minutes in the dark. The cells are again collected by centrifugation, rinsed in Ringer's Solution and resuspended to 0.2×10^6 cells/mL in modified Ringer's solution containing 10 mM calcium.
(§3) Compounds are dissolved to a concentration of 10 millimolar with DMSO. Compound plates are created by dispensing compounds into 384 well black wall clear bottom plates (Greiner 781091). Positive and negative controls are included on each plate. Typically, different amounts of each compound are tested ranging from 100 nanoMoles (20 micromolar final concentration) decreasing in half-log steps to 31 picoMoles (6 nanomolar final concentration). Each concentration is typically tested in triplicate.
(§4) 50 microliters of dye-loaded cells are dispensed into each well of the compound assay plate created above. The fluorescence in each well is then determined with an excitation wavelength of 480 nm and an emission wavelength of 540 nm using either a Molecular Devices SpectraMax multimode plate reader or a Hamamatsu FDSS/uCell plate imager.
(§5) The resulting fluorescence for each well is exported as an ascii file and loaded into our LIMS for analysis. The percent activity of each compound at each concentration is determined by comparison to the positive and negative control wells included in each plate.
Assays for TRPML2 and TRPML3 were performed as above for TRPML1, by substituting the appropriate TRPML2 or TRPML3 subtype for the TRPML1.
(§6) EC50 values were calculated using a non-linear regression of Prism. In the table, “A” indicates an EC50 of less than 100 nM, “B” indicates an EC50 range from 100 nM to 500 nM; “C” indicates an EC50 range from 500 nM to 2 μM; and “D” indicates an EC50 greater than 2 μM.

human TRPML1 = human TRPML1 (Homo sapiens, UniProt Q9GZU1); experiment: Fluorescent TRPML1 assay (Fluo4-AM calcium fluorescence, HEK-293 Trex cells); assay type: cell-based
Chain of human TRPML1 (Q9GZU1 whole entry L15A/L16A/L577A/L578A, form open): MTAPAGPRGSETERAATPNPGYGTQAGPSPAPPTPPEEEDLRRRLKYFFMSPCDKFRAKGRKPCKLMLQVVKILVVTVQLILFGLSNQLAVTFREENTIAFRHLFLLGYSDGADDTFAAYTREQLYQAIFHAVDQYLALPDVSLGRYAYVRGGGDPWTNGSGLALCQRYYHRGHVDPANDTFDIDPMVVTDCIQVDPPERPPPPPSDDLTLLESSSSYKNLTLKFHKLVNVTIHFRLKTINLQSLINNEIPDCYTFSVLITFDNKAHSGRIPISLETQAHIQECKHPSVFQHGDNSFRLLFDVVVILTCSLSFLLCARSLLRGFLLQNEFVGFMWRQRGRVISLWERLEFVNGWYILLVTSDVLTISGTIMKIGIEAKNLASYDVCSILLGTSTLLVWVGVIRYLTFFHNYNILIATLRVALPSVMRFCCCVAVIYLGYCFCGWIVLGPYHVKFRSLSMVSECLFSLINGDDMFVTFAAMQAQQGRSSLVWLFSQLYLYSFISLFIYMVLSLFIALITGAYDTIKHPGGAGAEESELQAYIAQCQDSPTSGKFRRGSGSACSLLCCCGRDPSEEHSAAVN
Procedure: as §1, §2, §3, §4, §5, §6

Compound	pEC50 (TRPML3; Table 3, compounds 101-177)	pEC50 (human TRPML1; Table 3, compounds 101-177)	pEC50 (TRPML3; Table 3, compounds 201-283)	pEC50 (human TRPML1; Table 3, compounds 201-283)
CC(C)C(=O)N1CCN(c2ncnc3c2c(N2CCCC2)cn3-c2cc(C#N)ccn2)C[C@H]1C [Compound 148, (R)-2-(4-(4-isobutyryl-3-methylpiperazin-1-yl)-5-(pyrrolidin-1-yl)-7H-pyrrolo[2,3-d]pyrimidin-7-yl)isonicotinonitrile]	6.30 to 7.00	5.70 to 6.30		
C[C@H]1CN(C(=O)C(C)(C)C)CCN1c1nccc2c1c(C1CC1)cn2-c1cccc(F)c1 [Compound 228, (S)-1-(4-(3-cyclopropyl-1-(3-fluorophenyl)-1H-pyrrolo[3,2-c]pyridin-4-yl)-3-methylpiperazin-1-yl)-2,2-dimethylpropan-1-one]			> 7.00	> 7.00
C[C@@H]1CN(c2ncnc3c2c(C2CC2)cn3-c2cc(F)cc(F)c2)[C@@H](C)CN1C(=O)C(C)(C)C [Compound 205, 1-((2R,5S)-4-(5-cyclopropyl-7-(3,5-difluorophenyl)-7H-pyrrolo[2,3-d]pyrimidin-4-yl)-2,5-dimethylpiperazin-1-yl)-2,2-dimethylpropan-1-one]			6.30 to 7.00	> 7.00
C[C@@H]1CN(c2ncnc3c2c(C2CCC2)cn3-c2cc(C#N)ccn2)[C@@H](C)CN1C(=O)C1(F)CC1 [Compound 236, 2-(5-cyclobutyl-4-((2S,5R)-4-(1-fluorocyclopropane-1-carbonyl)-2,5-dimethylpiperazin-1-yl)-7H-pyrrolo[2,3-d]pyrimidin-7-yl)isonicotinonitrile]			> 7.00	> 7.00
CC(C)C(=O)N1CCN(c2ncnc3c2c(-c2ccccn2)cn3-c2cc(C#N)ccn2)C[C@H]1C [Compound 132, (R)-2-(4-(4-isobutyryl-3-methylpiperazin-1-yl)-5-(pyridin-2-yl)-7H-pyrrolo[2,3-d]pyrimidin-7-yl)isonicotinonitrile]	5.70 to 6.30	5.70 to 6.30		
CC(C)C(=O)N1C[C@H](C)N(c2ncnc3c2c(-c2ccccc2F)cn3-c2cc(C#N)ccn2)C[C@H]1C (single isomer, unassigned) [Compound 234]				> 7.00
CC(C)C(=O)N1CCN(c2ncnc3c2c(-c2ccccc2F)cn3-c2cc(C#N)cnn2)[C@@H](C)C1 [Compound 171, (S)-6-(5-(2-fluorophenyl)-4-(4-isobutyryl-2-methylpiperazin-1-yl)-7H-pyrrolo[2,3-d]pyrimidin-7-yl)pyridazine-4-carbonitrile]	6.30 to 7.00	6.30 to 7.00		
Cc1cn(-c2cc(F)ccn2)c2ncnc(N3C[C@@H](C)N(C(=O)C(C)(C)C)C[C@@H]3C)c12 [Compound 244, 1-((2R,5S)-4-(7-(4-fluoropyridin-2-yl)-5-methyl-7H-pyrrolo[2,3-d]pyrimidin-4-yl)-2,5-dimethylpiperazin-1-yl)-2,2-dimethylpropan-1-one]			5.70 to 6.30	> 7.00
CC(C)C(=O)N1C[C@H](C)N(c2ncnc3c(-c4cc(C#N)ccn4)cn(-c4ccccc4F)c23)C[C@H]1C [Compound 213, 2-(5-(2-fluorophenyl)-4-((2S,5R)-4-isobutyryl-2,5-dimethylpiperazin-1-yl)-5H-pyrrolo [3,2-d]pyrimidin-7-yl)isonicotinonitrile]			> 7.00	> 7.00
CCCC(=O)N1CCN(c2ncnc3c2c(N2CCC2)cn3-c2cc(C#N)ccn2)C[C@H]1C [Compound 274, (R)-2-(5-(azetidin-1-yl)-4-(4-butyryl-3-methylpiperazin-1-yl)-7H-pyrrolo[2,3-d]pyrimidin-7-yl)isonicotinonitrile]			> 7.00	> 7.00
CCN(CC)c1cn(-c2cccc(Cl)c2)c2ncnc(N3CCN(C(=O)C(C)C)C[C@@H]3C)c12 [Compound 147, (S)-1-(4-(7-(3-chlorophenyl)-5-(diethylamino)-7H-pyrrolo[2,3-d]pyrimidin-4-yl)-3-methylpiperazin-1-yl)-2-methylpropan-1-one]	5.70 to 6.30	5.70 to 6.30		
CC(C)C(=O)N1C[C@H](C)N(c2ncnc3c2c(N2CCC2)cn3-c2cc(F)cc(F)c2)C[C@H]1C [Compound 218, 1-((2R,5S)-4-(5-(azetidin-1-yl)-7-(3,5-difluorophenyl)-7H-pyrrolo[2,3-d]pyrimidin-4-yl)-2,5-dimethylpiperazin-1-yl)-2-methylpropan-1-one]			5.70 to 6.30	6.30 to 7.00
CC(C)C(=O)N1CCN(c2ncnc3c2c(-c2ccccc2F)cn3-c2ncc(C#N)s2)[C@@H](C)C1 [Compound 142, (S)-2-(5-(2-fluorophenyl)-4-(4-isobutyryl-2-methylpiperazin-1-yl)-7H-pyrrolo[2,3-d]pyrimidin-7-yl) thiazole-5-carbonitrile]	6.30 to 7.00	6.30 to 7.00		
C[C@H]1CN(C(=O)C2CC2)CCN1c1ncnc2c1c(-c1ccccc1F)cn2-c1cc(C#N)ccn1 [Compound 105, (S)-2-(4-(4-(cyclopropanecarbonyl)-2-methylpiperazin-1-yl)-5-(2-fluorophenyl)-7H-pyrrolo[2,3-d]pyrimidin-7-yl)isonicotinonitrile]	> 7.00	> 7.00		
C[C@@H]1CN(c2ncnc3c2c(N2CCC2)cn3-c2cc(F)cc(F)c2)[C@@H](C)CN1C(=O)C(C)(C)C [Compound 217, 1-((2R,5S)-4-(5-(azetidin-1-yl)-7-(3,5 difluorophenyl)-7H-pyrrolo[2,3-d]pyrimidin-4-yl)2,5-dimethylpiperazin-1-yl)-2,2-dimethylpropan-1-one]			6.30 to 7.00	> 7.00
Cc1nccnc1-c1cn(-c2cc(C#N)ccn2)c2ncnc(N3C[C@@H](C)N(C(=O)C(C)C)C[C@@H]3C)c12 [Compound 172, 2-(4-((2S,5R)-4-isobutyryl-2,5-dimethylpiperazin-1-yl)-5-(3-methylpyrazin-2-yl)-7H-pyrrolo[2,3-d]pyrimidin-7-yl)isonicotinonitrile]	< 5.70	5.70 to 6.30		
C[C@@H]1CN(c2ncnc3c2c(C(F)(F)F)cn3-c2cncc(C#N)c2)[C@@H](C)CN1C(=O)C(C)(C)C [Compound 224, 5-(4-((2S,5R)-2,5-dimethyl-4-pivaloylpiperazin-1-yl)-5-(trifluoromethyl)-7H-pyrrolo[2,3-d]pyrimidin-7-yl)nicotinonitrile]			5.70 to 6.30	> 7.00
CC(C)C(=O)N1C[C@H](C)N(c2ncnc3c2c(-c2ccccc2F)cn3-c2cc(C#N)ccn2)C[C@H]1C (single isomer, unassigned) [Compound 233]				> 7.00
CC(C)C(=O)N1C[C@H](C)N(c2ncnc3c2c(-c2ccccc2F)cn3-c2cc(C#N)ccn2)C[C@H]1C (single isomer, unassigned) [Compound 281]				6.30 to 7.00
CC(C)C(=O)N1C[C@H](C)N(c2ncnc3c2c(C2CCC2)cn3-c2cc(C#N)ccn2)C[C@H]1C [Compound 238, 2-(5-cyclobutyl-4-((2S,5R)-4-isobutyryl-2,5-dimethylpiperazin-1-yl)-7H-pyrrolo[2,3-d]pyrimidin-7-yl)isonicotinonitrile]				6.30 to 7.00
C[C@@H]1CN(c2ncnc3c2c(-c2ccccc2F)cn3-c2cc(C#N)ccn2)CCN1C(=O)C1CC1 [Compound 111, (R)-2-(4-(4-(cyclopropanecarbonyl)-3-methylpiperazin-1-yl)-5-(2-fluorophenyl)-7H-pyrrolo[2,3-d]pyrimidin-7-yl)isonicotinonitrile]		> 7.00		
